Measured values as given in publication PMC6943742, “Peptide/Peptoid Hybrid Oligomers: The Influence of Hydrophobicity and Relative Side-Chain Length on Antibacterial Activity and Cell Selectivity” (Molecules, 2019).
In brackets after ≈: the same amount, converted by molar mass. Non-standard residues stand in square brackets, D forms with d. Residues, ends and D or L forms follow the SMILES beside them. Gly(NCH2CH2Ph) = O=C(O)CNCCc1ccccc1; Gly(N-2-aminoethyl) = NCCNCC(=O)O; hPhe = N[C@@H](CCc1ccccc1)C(=O)O; Gly(N(CH2)3NH2) = NCCCNCC(=O)O; hLys = NCCCCC[C@H](N)C(=O)O; Nphe = O=C(O)CNCc1ccccc1; Orn = NCCC[C@H](N)C(=O)O; Nlys = NCCCCNCC(=O)O

Experiments:
in vitro [1] = format: cell-based; settings: human, Hemolytic Activity (percentage hemolysis)
Protocol: The lysis of human red blood cells was measured as previously described, with modifications. In brief, freshly drawn human red blood cells (hRBCs) were washed three times with PBS buffer and centrifuged two times for 5 min at 2500 rpm. A two-fold serial dilution of peptidomimetics in PBS buffer was added to each well in a sterile polypropylene V-bottom 96-well plate to the total volume of 75 μL. A 0.5% v/v hRBC suspension (75 μL in PBS buffer) was added to each well to reach a final volume of 150 μL in each well. The plate was incubated (37 °C) for 60 min, and then the cells were subsequently pelleted by centrifugation at 1000 rpm for 5 min. The supernatants (50 μL) were transferred to clear, flat-bottomed plastic 96-well plates. The concentration of hemoglobin was detected by measuring the OD at 405 nm. The OD of cells incubated with 0.1% SDS defined 100% hemolysis, while the OD of cells incubated with PBS buffer defined 0% hemolysis. The concentrations tested were 200, 400, and 800 μg/mL (only average values for the highest concentration are stated in Table 2).

P. aeruginosa PAO1 = format: cell-based; settings: PAO1, 20 h
Protocol: (§1) MIC values were evaluated by using the modified Hancock lab protocol in non-binding polystyrene microtitre plates, with bacterial suspensions of ∼2 × 10^5 CFU/mL in Mueller-Hinton broth (Difco, Sparks MD, USA), with Mg^2+ and Ca^2+ concentrations of 4 mg/L each. The compounds were dissolved in H2O and diluted in 0.01% acetic acid, 0.2% BSA (final concentration). Aliquots of 11 µL of 10 × test compounds were then transferred to the appropriate wells with bacterial suspensions. For preparation and transfer of the solutions of the compounds, low-binding sterile tubes and tips (Axygen, Union City CA, USA) were used. After 20 h incubation of covered plates at 35 °C (±2 °C) with circular shaking at 220 rpm, the MICs were read. The antibacterial activity of peptidomimetics was tested against E. coli ATCC 25922, K. pneumoniae ATCC 13883, P. aeruginosa ATCC 27853, P. aeruginosa PAO1, A. baumannii ATCC 19606, S. aureus ATCC 29213, and E. faecalis ATCC 29212.

K. pneumoniae ATCC 13883 = format: cell-based; settings: ATCC 13883, 20 h
Protocol: as §1

S. aureus ATCC 29213 = format: cell-based; settings: for MIC: ATCC 29213, 20 h
Protocol: as §1

A. baumannii ATCC 19606 = format: cell-based; settings: ATCC 19606, 20 h
Protocol: as §1

E. faecalis ATCC 29212 = format: cell-based; settings: ATCC 29212, 20 h
Protocol: as §1

P. aeruginosa ATCC 27853 = format: cell-based; settings: ATCC 27853, 20 h
Protocol: as §1

E. coli ATCC 25922 = format: cell-based; settings: ATCC 25922, 20 h
Protocol: as §1

[2] = Relative hydrophobicity by RP-HPLC (% MeCN at peak elution); format: physicochemical; settings: RP-HPLC gradient 0 → 60% B during 10 min; % MeCN at peak elution calculated from retention time
Protocol: The relative hydrophobicity of each peptidomimetic was measured by reverse-phase high-performance liquid chromatography (RP-HPLC). Typically, the RP-HPLC retention time (or percentage acetonitrile at peak elution) constitutes the preferred measure that allows for comparison of relative hydrophobicity, while log P values of polycationic peptides or peptidomimetics normally are considered unsuitable due to the extreme hydrophilic nature of such compounds [11, 45, 57, 58, 59, 60]. […] For both subgroups III (with cationic amino acid residues and the peptoid analogue of Phe, NPhe, i.e., 9–12) and IV (with cationic amino acid residues and the peptoid analogue of hPhe, NhPhe, i.e., 13–16) only minor differences in hydrophobicity were seen. These observations infer that, when the cationic residues are of a peptoid nature, the side-chain length of these has a […] influence on the hydrophobicity. […] Thus, introduction of additional six methylene groups results, as expected, in increased hydrophobicity.
Starting materials and solvents were purchased from commercial suppliers (Iris Biotech, Markredwitz, Germany; Fluorochem, Hadfield, United Kingdom; and Merck, Darmstadt, Germany) and used without further purification. Water used for analytical and preparative high-performance liquid chromatography (HPLC) was filtered through a 0.22-μm Millipore membrane filter. Purity and retention time of each peptidomimetic were determined by analytical UHPLC by using a Phenomenex Luna C18(2) HST column (100 mm × 3 mm; particle size: 2.5 μm; pore size: 100 Å) on a Shimadzu Prominence and Shimadzu Nexera system using an aqueous acetonitrile (MeCN) gradient with 0.1% trifluoroacetic acid (TFA) added (eluent A: 5:95 MeCN–H2O + 0.1% TFA, eluent B: 95:5 MeCN–H2O + 0.1% TFA); a flow rate of 0.5 mL/min was used. For elution of peptidomimetics, a linear gradient of 0% to 60% B during 10 min was used with UV detection at λ = 220 nm. […] For each peptidomimetic, the percentage of MeCN at peak elution was calculated from the retention time by using the following formula:(1) %MeCN = 0.95 (0.6Rt/10 min.) + 0.05 (1−0.6Rt/10 min.).

in vitro [3] = format: cell-based; settings: human
Protocol: (§2) Side effects affecting cell viability were estimated on the HepG2 cell line ATCC HB-8065. In brief, HepG2 cells were seeded in flat-bottomed 96-well plates at a concentration of 5000 cells per well. At 80−90% confluency, the cells were incubated for 24 h in a humidified incubator (5% CO2, 37 °C). The medium was removed, and the cells were incubated for 48 h in a humidified incubator (5% CO2, 37 °C) with compounds in two-fold serial dilutions. An MTT assay was then performed as previously described. In brief, after incubation with the test compounds, the culture medium was removed and fresh medium with 0.2 mg/mL MTT was added in each well of the plate. After incubation (3 h, 37 °C, 5% CO2), the medium with MTT was removed, and 200 μL dimethyl sulfoxide were added at once to each sample. Absorbance of MTT was measured using spectrophotometer TECAN Infinite M1000 at 540 nm. The relative viability was calculated by using the formula: ODtreated cells × 100/ODcontrol cells. The IC50 values are calculated by using the program Graph Pad Prism® 5.0. For all compounds, the test range was 10–1280 μg/mL.

[4] = test system: HepG2 cell line ATCC HB-8065; test: in vitro; format: cell-based; settings: 48 h
Protocol: as §2

Structure (SMILES)	hemolysis at 60 min, 800 µg/mL (in vitro [1])	MIC (P. aeruginosa PAO1)	MIC (K. pneumoniae ATCC 13883)	MIC (S. aureus ATCC 29213)	MIC (A. baumannii ATCC 19606)	MIC (E. faecalis ATCC 29212)	MIC (P. aeruginosa ATCC 27853)	MIC (E. coli ATCC 25922)	Hydrophobicity (% MeCN at elution) [2]	viability at 48 h, 1280 µg/mL (in vitro [3])	IC50 for inhibiting growth of HepG2 cells [4]	Activity against S. aureus (in words) (S. aureus ATCC 29213; S. aureus)
NCCNCC(=O)N[C@@H](Cc1ccccc1)C(=O)N(CCN)CC(=O)N[C@@H](Cc1ccccc1)C(=O)N(CCN)CC(=O)N[C@@H](Cc1ccccc1)C(=O)N(CCN)CC(=O)N[C@@H](Cc1ccccc1)C(=O)N(CCN)CC(=O)N[C@@H](Cc1ccccc1)C(=O)N(CCN)CC(=O)N[C@@H](Cc1ccccc1)C(N)=O [Peptidomimetic 1] (H-[Gly(N-2-aminoethyl)]F[Gly(N-2-aminoethyl)]F[Gly(N-2-aminoethyl)]F[Gly(N-2-aminoethyl)]F[Gly(N-2-aminoethyl)]F[Gly(N-2-aminoethyl)]F-NH2)	7%	>64 µg/mL	64 µg/mL (≈ 42.6 µM)	>64 µg/mL	>64 µg/mL	>64 µg/mL	64 µg/mL (≈ 42.6 µM)	4 to 8 µg/mL	37.5%	49%	1280 µg/mL	–
NCCCNCC(=O)N[C@@H](CCc1ccccc1)C(=O)N(CCCN)CC(=O)N[C@@H](CCc1ccccc1)C(=O)N(CCCN)CC(=O)N[C@@H](CCc1ccccc1)C(=O)N(CCCN)CC(=O)N[C@@H](CCc1ccccc1)C(=O)N(CCCN)CC(=O)N[C@@H](CCc1ccccc1)C(=O)N(CCCN)CC(=O)N[C@@H](CCc1ccccc1)C(N)=O [Peptidomimetic 6] (H-[Gly(N(CH2)3NH2)][hPhe][Gly(N(CH2)3NH2)][hPhe][Gly(N(CH2)3NH2)][hPhe][Gly(N(CH2)3NH2)][hPhe][Gly(N(CH2)3NH2)][hPhe][Gly(N(CH2)3NH2)][hPhe]-NH2)	8%	16 to 32 µg/mL	>64 µg/mL	16 µg/mL (≈ 9.59 µM)	>64 µg/mL	>64 µg/mL	8 µg/mL (≈ 4.79 µM)	4 µg/mL (≈ 2.4 µM)	41.2%	–	456 µg/mL	moderate activity
NCCCCNCC(=O)N[C@@H](CCc1ccccc1)C(=O)N(CCCCN)CC(=O)N[C@@H](CCc1ccccc1)C(=O)N(CCCCN)CC(=O)N[C@@H](CCc1ccccc1)C(=O)N(CCCCN)CC(=O)N[C@@H](CCc1ccccc1)C(=O)N(CCCCN)CC(=O)N[C@@H](CCc1ccccc1)C(=O)N(CCCCN)CC(=O)N[C@@H](CCc1ccccc1)C(N)=O [Peptidomimetic 7] (H-[Nlys][hPhe][Nlys][hPhe][Nlys][hPhe][Nlys][hPhe][Nlys][hPhe][Nlys][hPhe]-NH2)	6%	32 to 64 µg/mL	>64 µg/mL	>64 µg/mL	>64 µg/mL	>64 µg/mL	32 µg/mL (≈ 18.3 µM)	2 to 4 µg/mL	40.6%	–	720 µg/mL	–
NCCCCC[C@H](NC(=O)CN(Cc1ccccc1)C(=O)[C@H](CCCCCN)NC(=O)CN(Cc1ccccc1)C(=O)[C@H](CCCCCN)NC(=O)CN(Cc1ccccc1)C(=O)[C@H](CCCCCN)NC(=O)CN(Cc1ccccc1)C(=O)[C@H](CCCCCN)NC(=O)CN(Cc1ccccc1)C(=O)[C@@H](N)CCCCCN)C(=O)N(CC(N)=O)Cc1ccccc1 [Peptidomimetic 12] (H-[hLys][Nphe][hLys][Nphe][hLys][Nphe][hLys][Nphe][hLys][Nphe][hLys][Nphe]-NH2)	9%	64 µg/mL (≈ 36.5 µM)	>64 µg/mL	>64 µg/mL	–	>64 µg/mL	64 µg/mL (≈ 36.5 µM)	2 µg/mL (≈ 1.14 µM)	38.0%	47%	1280 µg/mL	–
NCCC[C@H](NC(=O)CN(CCc1ccccc1)C(=O)[C@H](CCCN)NC(=O)CN(CCc1ccccc1)C(=O)[C@H](CCCN)NC(=O)CN(CCc1ccccc1)C(=O)[C@H](CCCN)NC(=O)CN(CCc1ccccc1)C(=O)[C@H](CCCN)NC(=O)CN(CCc1ccccc1)C(=O)[C@@H](N)CCCN)C(=O)N(CCc1ccccc1)CC(N)=O [Peptidomimetic 14] (H-[Orn][Gly(NCH2CH2Ph)][Orn][Gly(NCH2CH2Ph)][Orn][Gly(NCH2CH2Ph)][Orn][Gly(NCH2CH2Ph)][Orn][Gly(NCH2CH2Ph)][Orn][Gly(NCH2CH2Ph)]-NH2)	11%	8 to 16 µg/mL	32 µg/mL (≈ 19.2 µM)	>64 µg/mL	>64 µg/mL	>64 µg/mL	8 µg/mL (≈ 4.79 µM)	4 to 8 µg/mL	40.5%	–	684 µg/mL	–
NCCCC[C@H](NC(=O)CN(CCc1ccccc1)C(=O)[C@H](CCCCN)NC(=O)CN(CCc1ccccc1)C(=O)[C@H](CCCCN)NC(=O)CN(CCc1ccccc1)C(=O)[C@H](CCCCN)NC(=O)CN(CCc1ccccc1)C(=O)[C@H](CCCCN)NC(=O)CN(CCc1ccccc1)C(=O)[C@@H](N)CCCCN)C(=O)N(CCc1ccccc1)CC(N)=O [Peptidomimetic 15] (H-K[Gly(NCH2CH2Ph)]K[Gly(NCH2CH2Ph)]K[Gly(NCH2CH2Ph)]K[Gly(NCH2CH2Ph)]K[Gly(NCH2CH2Ph)]K[Gly(NCH2CH2Ph)]-NH2)	8%	8 to 16 µg/mL	>64 µg/mL	>64 µg/mL	64 µg/mL (≈ 36.5 µM)	>64 µg/mL	16 µg/mL (≈ 9.13 µM)	4 µg/mL (≈ 2.28 µM)	40.5%	–	595 µg/mL	–
